According to patent publication US20240197900A1, “DISACCHARIDE LINKER, DISACCHARIDE-SMALL MOLECULE DRUG CONJUGATE AND SUGAR CHAIN FIXED-POINT ANTIBODY-DRUG CONJUGATE, AND PREPARATION METHOD THEREFOR AND USE THEREOF” (priority 2021, published 2024):

Biological target: Endo-S2 (Streptococcus pyogenes serotype M49, UniProt T1WGN1)
Experiment: Screening of sugar substrates: transfer of oxazoline substrates to deglycosylated antibody by Endo-S2
Assay type: biochemical
Conditions: substrate 1.5 mM, (Fuc α1,6)GlcNAc-Herceptin 5 mg/mL, Endo-S2 0.2 mg/mL, 3 h; for recognition by / transfer activity of Endo-S2 (in words): 30° C., FIG. 1B
Description: Different sugar substrates (1 equivalent, including monosaccharide, disaccharide and trisaccharide structures) were weighed and dissolved in 50 mM PB, pH 7.0 buffer, CDMBI (5 equivalents) was added to the above system, mixed well and cooled to 0° C. Potassium phosphate (15 eq) was added, the final concentration of the sugar substrates in the reaction system was 10 mM, and the reaction was carried out at 0° C. for 2 h. Plenty of precipitate was observed, which was removed by centrifugation. The supernatant was oxazoline substrates G1, G12, G15-G20 containing salts, which were directly used for the next step of screening.
Oxazoline substrates (G1, G12, G15-G20), deglycosylated antibody (Fuc α1.6) GlcNAc-Herceptin and endoglycosidase Endo-S2 were sequentially added to 50 mM Tris-HCl, pH 7.2 buffer, such that the final concentrations of each were 1.5 mM, 5 mg/mL, and 0.2 mg/mL, respectively, which was incubated at 30° C. for 3 h for detection by mass spectrometry. At the same time, a control group without endoglycosidase was set to eliminate the influence of non-enzymatic reactions.

Chain of Endo-S2 (T1WGN1 37-843): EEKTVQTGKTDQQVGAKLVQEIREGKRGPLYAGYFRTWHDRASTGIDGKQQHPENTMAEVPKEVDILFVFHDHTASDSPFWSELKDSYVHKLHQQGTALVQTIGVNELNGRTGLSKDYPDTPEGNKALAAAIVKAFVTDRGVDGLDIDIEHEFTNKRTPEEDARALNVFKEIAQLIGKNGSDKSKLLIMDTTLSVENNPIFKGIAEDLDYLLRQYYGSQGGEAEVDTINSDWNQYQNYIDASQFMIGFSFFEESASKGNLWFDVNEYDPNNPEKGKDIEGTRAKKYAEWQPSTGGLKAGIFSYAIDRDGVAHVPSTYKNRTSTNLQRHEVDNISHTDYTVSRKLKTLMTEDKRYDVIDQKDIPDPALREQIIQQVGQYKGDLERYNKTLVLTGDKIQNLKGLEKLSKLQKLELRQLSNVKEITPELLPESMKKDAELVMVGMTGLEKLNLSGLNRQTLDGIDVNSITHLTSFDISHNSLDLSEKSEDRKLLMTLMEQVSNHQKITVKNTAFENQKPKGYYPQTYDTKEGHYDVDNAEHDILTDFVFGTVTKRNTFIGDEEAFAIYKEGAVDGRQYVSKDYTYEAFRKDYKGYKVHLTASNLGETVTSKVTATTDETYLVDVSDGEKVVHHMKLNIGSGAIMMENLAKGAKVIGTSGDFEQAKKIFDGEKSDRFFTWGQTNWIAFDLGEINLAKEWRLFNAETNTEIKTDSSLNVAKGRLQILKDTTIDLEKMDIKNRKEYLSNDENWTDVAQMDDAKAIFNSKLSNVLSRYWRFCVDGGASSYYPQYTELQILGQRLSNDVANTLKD

Compound | recognition by / transfer activity of Endo-S2 (in words) | transfer efficiency to the deglycosylated antibody (Tris-HCl pH 7.2, 30° C., mass spectrometry) [%]
CC(=O)N[C@H]1C([C@H](O)[C@H](O)CO)O[C@@](OCC2O[C@@H](O[C@@H]3C(CO)O[C@@H]4OC(C)=NC4[C@H]3O)C(O)[C@@H](O)[C@H]2O)(C(=O)O)C[C@H]1O (stereo partly drawn) [G12] | well recognized | 
CC1=NC2[C@@H](O1)OC(CO)[C@@H](O[C@@H]1OC(CO)[C@H](O)[C@H](O)C1O)[C@@H]2O (stereo partly drawn) [G1] |  | 68
CC1=NC2C(O[C@@H]3OC(C)[C@@H](O)C(O)C3O)[C@H](O[C@@H]3OC(CO)[C@H](O)C(O)C3O)C(CO)O[C@@H]2O1 (stereo partly drawn) [G20] | greatly reduced | 
